Consider 2 compounds from patent US10172355B2, “Safened herbicidal compositions including 4-amino-3-chloro-5-fluoro-6-(4-chloro-2-fluoro-3-methoxyphenyl)pyridine-2-carboxylic acid or a derivative thereof for use in rice” (Dow AgroSciences LLC, priority 2012, dated 2019).

Read-outs that look alike come from different tables or passages of the source.

Assay [1] relates to ECHCG=Echinochloa crus-galli. Nature of the assay: Postemergence foliar-applied herbicides and safeners, visual injury of weed. It counts as in vivo. The note with it: for pest or weed control at 140 g/ha: Echinochloa crus-galli, foliar, 480 h, read-out: Visual Injury (%) - 20 DAA ECHCG Obs, foliar, Compound A form 140 g ae/ha alone; for Mean Visual Injury (%) - 20-22 DAA ECHCG: post-emergence foliar. From the text:
(§1) Seeds or nutlets of the desired test plant species were planted in a soil matrix prepared by mixing a loam or sandy loam soil (e.g., 28.6 percent silt, 18.8 percent clay, and 52.6 percent sand, with a pH of about 5.8 and an organic matter content of about 1.8 percent) and calcareous grit in an 80 to 20 ratio. The soil matrix was contained in plastic pots with a surface area of 84.6 square centimeters (cm^2). When required to ensure good germination and healthy plants, a fungicide treatment and/or other chemical or physical treatment was applied. The plants were grown for 8-22 days in a greenhouse with an approximate 14 hr photoperiod which was maintained at about 29° C. during the day and 26° C. during the night. Nutrients (Peters Excel 15-5-15 5-Ca 2-Mg and iron chelate) were applied in the irrigation solution as needed and water was added on a regular basis. Supplemental lighting was provided with overhead metal halide 1000-Watt lamps as necessary. The plants were employed for testing when they reached the second or third true leaf stage.
(§2) Treatments consisted of the acid or esters of 4-amino-3-chloro-5-fluoro-6-(4-chloro-2-fluoro-3-methoxy-phenyl)pyridine-2-carboxylic acid (compound A) and various safener components alone and in combination. Forms of compound A were applied on an acid equivalent basis. Safener components were applied on an active ingredient or acid equivalent basis depending on the compound.
(§3) Treatment requirements were calculated based upon the rates being tested, the concentration of active ingredient or acid equivalent in the formulation, and a 12 mL application volume at a rate of 187 L/ha.
(§4) For treatments comprised of formulated compounds, measured amounts of compounds were placed individually in 25 mL glass vials and diluted in a volume of 1.25% (v/v) Agri-dex crop oil concentrated to obtain 12× stock solutions. […] Application solutions were prepared by adding an appropriate amount of each stock solution (e.g., 1 mL) and diluted to the appropriate final concentrations with the addition of 10 mL of an aqueous mixture of 1.25% (v/v) Agri-dex crop oil concentrate so that the final spray solutions contained 1.25% (v/v) Agri-dex crop oil concentrate.
(§5) For treatments comprised of technical compounds, weighed amounts were placed individually in 25 mL glass vials and dissolved in a volume of 97:3 v/v acetone/DMSO to obtain 12× stock solutions. […] Application solutions were prepared by adding an appropriate amount of each stock solution (e.g., 1 mL) and diluted to the appropriate final concentrations with the addition of 10 mL of an aqueous mixture of 1.5% (v/v) Agri-dex crop oil concentrate so that the final spray solutions contained 1.25% (v/v) Agri-dex crop oil concentrate. When technical materials were used, the concentrated stock solutions were added to the spray solutions so that the final acetone and DMSO concentrations of the application solutions were […], respectively.
(§6) For treatments comprised of formulated and technical compounds, weighed amounts of the technical materials were placed individually in 25 mL glass vials and dissolved in a volume of 97:3 v/v acetone/DMSO to obtain 12× stock solutions, and measured amounts of the formulated compounds were placed individually in 25 mL glass vials and diluted in a volume of 1.5% (v/v) Agri-dex crop oil concentrate or water to obtain 12× stock solutions. […] Application solutions were prepared by adding an appropriate amount of each stock solution (e.g., 1 mL) and diluted to the appropriate final concentrations with the addition of an appropriate amount of an aqueous mixture of 1.5% (v/v) Agri-dex crop oil concentrate so that the final spray solutions contained 1.25% (v/v) Agri-dex crop oil concentrate. When required, additional water and/or 97:3 v/v acetone/DMSO was added to individual application solutions so that the final acetone and DMSO concentrations of the application solutions being compared were 8.1% and 0.25%, respectively. […]

The test system of another assay is ORYSA=Orysa sativa, Rice. Nature of the assay: Postemergence foliar-applied herbicides and safeners in direct-seeded rice, visual injury. The assay is classed as in vivo. The following applies: for Visual crop injury (%) at 140 g/ha: Oryza sativa, 480 h, read-out: Visual Injury (%) - 20 DAA ORYSA-‘Clearfield 171’ Obs, foliar, Compound A form 140 g ae/ha alone; for Visual crop injury (%) at 140 g/ha / Visual Injury (%) - 21 DAA ORYSA-‘Clearfield 171’ Obs / Visual Injury (%) - 21 DAA ORYSA-‘Neptune’ Obs / Visual Injury (%) - 21 DAA ORYSA-‘Wells’ Obs: foliar; for Visual Injury (%) - 21 DAA ORYSA-‘Clearfield 171’ Obs / Visual Injury (%) - 21 DAA ORYSA-‘Neptune’ Obs / Visual Injury (%) - 21 DAA ORYSA-‘Wells’ Obs: Compound A form 70 g ae/ha alone, Tables 1,2,7,8; for Mean Visual Injury (%) - 20-22 DAA ORYSA ‘Clearfield 171’ / Mean Visual Injury (%) - 20-22 DAA ORYSA ‘Wells’: post-emergence foliar.
Excerpt: as §1, §2, §3, §4, §5, §6

Turning to `COc1c(Cl)ccc(-c2nc(C(=O)O)c(Cl)c(N)c2F)c1F` [Acid, 4-amino-3-chloro-6-(4-chloro-2-fluoro-3-methoxyphenyl)-5-fluoropyridine-2-carboxylic acid], the pest or weed control at 140 g/ha in assay [1] (trial of Tables 3,4,6,10,12,14) was determined as 98%; in assay [1] (trial of Tables 5,9,11,13), 96%. Moreover, the “Mean Visual Injury (%) - 20-22 DAA ECHCG” value in assay [1] (2 g ae/ha) is 57%; in assay [1] (4 g ae/ha), 81%; in assay [1] (8 g ae/ha), 91%; in assay [1] (16 g ae/ha), 95%; in assay [1] (32 g ae/ha), 96%. In addition, the Visual crop injury (%) at 140 g/ha in the assay with ORYSA=Orysa sativa, Rice (trial of Tables 3,4,6,10,12,14) came out at 43%; with ORYSA=Orysa sativa, Rice (trial of Tables 5,9,11,13), 38%. For the same compound, the “Visual Injury (%) - 21 DAA ORYSA-‘Clearfield 171’ Obs” value in the assay with ORYSA=Orysa sativa, Rice is 22%. Besides, the “Visual Injury (%) - 21 DAA ORYSA-‘Neptune’ Obs” value in the assay on ORYSA=Orysa sativa, Rice is reported as 40%. Besides, the “Visual Injury (%) - 21 DAA ORYSA-‘Wells’ Obs” value in the assay on ORYSA=Orysa sativa, Rice was 12%. The “Mean Visual Injury (%) - 20-22 DAA ORYSA ‘Clearfield 171’” value in the assay on ORYSA=Orysa sativa, Rice (2 g ae/ha) came to 0%; with ORYSA=Orysa sativa, Rice (4 g ae/ha), 0%; in the assay on ORYSA=Orysa sativa, Rice (8 g ae/ha), 2%; with ORYSA=Orysa sativa, Rice (16 g ae/ha) it was 11%; with ORYSA=Orysa sativa, Rice (32 g ae/ha), 24%. The “Mean Visual Injury (%) - 20-22 DAA ORYSA ‘Wells’” value in the assay on ORYSA=Orysa sativa, Rice (2 g ae/ha) amounted to 0%; in the assay with ORYSA=Orysa sativa, Rice (4 g ae/ha), 0%; with ORYSA=Orysa sativa, Rice (8 g ae/ha), 0%; in the assay on ORYSA=Orysa sativa, Rice (16 g ae/ha) it was 7%; in the assay with ORYSA=Orysa sativa, Rice (32 g ae/ha) it was 12%.

As for `COc1c(Cl)ccc(-c2nc(C(=O)OCc3ccccc3)c(Cl)c(N)c2F)c1F` [Benzyl], the pest or weed control at 140 g/ha in assay [1] (trial of Tables 3,4,6,10,12,14) worked out at 98%; in assay [1] (trial of Tables 5,9,11,13), 99%. For the same compound, the “Mean Visual Injury (%) - 20-22 DAA ECHCG” value came out at 63% in assay [1] (2 g ae/ha); 91% in assay [1] (4 g ae/ha); 94% in assay [1] (8 g ae/ha); 95% in assay [1] (16 g ae/ha); 96% in assay [1] (32 g ae/ha). Also, the Visual crop injury (%) at 140 g/ha with ORYSA=Orysa sativa, Rice (trial of Tables 3,4,6,10,12,14) came out at 13%; in the assay with ORYSA=Orysa sativa, Rice (trial of Tables 5,9,11,13), 15%. In addition, in the assay on ORYSA=Orysa sativa, Rice, the “Visual Injury (%) - 21 DAA ORYSA-‘Clearfield 171’ Obs” value is on record as 0%. Also, the “Visual Injury (%) - 21 DAA ORYSA-‘Neptune’ Obs” value in the assay with ORYSA=Orysa sativa, Rice came out at 5%. Further, the “Visual Injury (%) - 21 DAA ORYSA-‘Wells’ Obs” value in the assay on ORYSA=Orysa sativa, Rice was found to be 0%. In addition, the “Mean Visual Injury (%) - 20-22 DAA ORYSA ‘Clearfield 171’” value is 0% in the assay with ORYSA=Orysa sativa, Rice (2 g ae/ha); 0% in the assay with ORYSA=Orysa sativa, Rice (4 g ae/ha); 0% in the assay with ORYSA=Orysa sativa, Rice (8 g ae/ha); 8% in the assay with ORYSA=Orysa sativa, Rice (16 g ae/ha); 3% with ORYSA=Orysa sativa, Rice (32 g ae/ha). Besides, the “Mean Visual Injury (%) - 20-22 DAA ORYSA ‘Wells’” value with ORYSA=Orysa sativa, Rice (2 g ae/ha) worked out at 0%; in the assay with ORYSA=Orysa sativa, Rice (4 g ae/ha) it was 0%; in the assay with ORYSA=Orysa sativa, Rice (8 g ae/ha), 0%; with ORYSA=Orysa sativa, Rice (16 g ae/ha), 3%; in the assay with ORYSA=Orysa sativa, Rice (32 g ae/ha), 3%.
